Assay results taken from patent publication US7491707B1, “Synthetic lipid-a-analogs and uses thereof” (Biomira, Inc., priority 1999, dated 2009).
“Also recorded” adds a separate entry of the source.

How the values were obtained:
[1] = literature bioassays; cited from earlier work
Interferon-gamma (IFN-γ) = Interferon-gamma (IFN-γ) production in cell culture supernatants by ELISA, lymphocytes of mice immunized with adjuvanted MUC1 liposomal vaccine; type: in vivo, C57-Black mice; conditions: for Interferon-gamma (IFN-γ, pg/ml): s.c. liposomal vaccine 40 μg BP1-148 + 20 μg Lipid-A analog per dose, nine days after injection; for interferon-gamma production: in words, liposomal vaccine formulations in mice, FIG. 31-FIG. 33
Procedure: (§1) Typically, the liposomal formulation was composed of 400 μg of MUC1-based lipopeptide BP1-148, H2N-[…](Pal)G-OH, 200 μg of Lipid-A analog, 6.94 mg of cholesterol, 1.46 mg of dimyristoyl phosphatidylglycerol ([…]) and 11.62 mg of dipalmitoyl phosphatidylcholine (DPPC) per 1 ml of saline (0.9% NaCl solution).
(§2) The liposomal constructs were formulated by first dissolving the phospholipids, cholesterol and Lipid A analog in tert-butanol at about 53° C. Lipopeptide and water (5%, v/v) were then added to the tert-butanol solution. The resulting clear 95% tert-butanol solution was injected into about 4 volumes of rapidly stirred water at about 50° C., using a glass syringe with an 18-gauge needle. The small unilamellar vesicles (SUV) formed in this process were cooled, sterilized by filtration through a 0.22 μm membrane filter, filled into vials and lyophilized. The dry powder was re-hydrated with sterile saline before injection, resulting in the formation of multilamellar large vesicles (MLV). The liposomes formed are used to immunize mice.
(§3) Groups of C57-Black mice were immunized subcutaneously with the liposomal vaccine containing 40 μg of MUC1-based lipopeptide BP1-148 (FIG. 34), which has the peptide sequence of H2N-[…](Pal) G-OH, and 20 μg of Lipid-A analog per dose. Nine days after vaccine injection mice were sacrificed and lymphocytes were taken from the draining lymph nodes (local response) or from the spleens (systemic response) to determine the immune response in each group. The lymphocytes taken from immunized mice were incubated in in vitro cultures in the presence of MUC1-based boosting antigen BP1-151, which has the peptide sequence H2N-[…]-OH.
Interferon-gamma (IFN-γ) levels were determined in the cell culture supernatants using enzyme-linked immunoabsorbent assay (ELISA). 96-Well plates were coated with 50 μl of catcher Mabs in 50 μl of R4.6AZ at 37° C. for 30 min. The plates were then washed and incubated with test samples for 45 min. After two washes the second biotinylated antibody, XMG1.2 was added. After washing, peroxidase-conjugated streptavidin was added and incubated again for 30 min. Finally, 100 μl of horseradish peroxidase (HRPO) substrate solution was added. The optical density was measured with a Thermomax ELISA reader at 405 nm wavelength in kinetic mode for 10 min. The interferon-gamma (IFN-γ) levels corresponding to various Lipid-A analogs are shown in Table 1-Table 3 and FIG. 31-FIG. 33.

T-cell = T-cell proliferation (3H thymidine incorporation) of lymph node lymphocytes from mice immunized with MUC1-based liposomal vaccine adjuvanted with Lipid-A analog; type: in vivo, C57-Black mice; conditions: for T-cell-Proliferation (CPM): s.c. liposomal vaccine 40 μg BP1-148 + 20 μg Lipid-A analog per dose, nine days after injection, boosting antigen BP1-151; for T-cell blastogenesis: in words, liposomal vaccine formulations in mice, FIG. 31-FIG. 33
Procedure: as §1, §2, §3
T-cell proliferation was evaluated using a standard ^3H thymidine incorporation assay. Briefly, nylon wool passed inguinal lymph node lymphocytes from each mouse were added to a culture containing 106 native mitomycin C treated syngeneic splenocytes, which serves as antigen presenting cells (APCs). To each well 20 μg of MUC1-based boosting peptide BP1-151, H2N-[…]-OH (single letter amino acid code, Table 8), was added for positive control; and cultures containing no antigen or peptide BP1-72, which has the peptide sequence H2N-[…]-OH, were used as negative control. The culture was incubated for 72 h in a total volume of 250 μl well, followed by adding 1 μCi of ^3H-thymidine in a volume of 50 μl. The plates were incubated for an additional 18-20 h. Cells were harvested and [^3H]dTh incorporation was measured by liquid scintillation counter. T-cell proliferation results corresponding to various liposomal vaccines adjuvanted, with different Lipid-A analogs are summarized in Tables 1-Table 3 and FIG. 31-FIG. 33.

[2] = Solubility of Lipid-A analogs for incorporation into liposomes; type: physicochemical; conditions: in words; given as cause of poor incorporation into liposomes
[3] = tested on: immune response to MUC1-based lipopeptide BP1-148; assay: Adjuvanticity of Lipid-A analogs in liposomal vaccine with MUC1 lipopeptide BP1-148 (T-cell blastogenesis and IFN-γ production); type: in vivo, mice; conditions: in words
Text: Liposome formulations have been used to evaluate the adjuvant properties of various synthetic Lipid-A structures and the immune responses to a synthetic lipopeptide antigen BP-148, H2N-[…](Pal)G-OH (FIG. 34), a modified 25-amino-acid sequence derived from tumor-associated MUC1 mucin. The commercially available Lipid-A product, which is currently under clinical evaluation as an adjuvant for vaccine programs, was used for comparison. The natural Lipid-A product, purchased from AVANTI, contained a mixture of Lipid-A analogs extracted from Salmonella bacterial cell wall and is designated as Natural Lipid-A in this invention.
Thus, the liposomal formulations containing the synthetic lipopeptide antigen, BP1-148, and Lipid-A analogs 33, 48, 54, 58, 70, 77, 86, 94, 102, 104 or Natural Lipid-A, were used to immunize mice to measure their immune response in terms of T-cell blastogenesis and interferon-gamma (IFN-γ) production. The compounds were tested in three groups at different time and their preliminary results are shown separately in FIGS. 31-33. As the variations are attributed to different factors such as animal groups and experimental factors, the data from different groups will not be compared.
as §3

C57-Black mice = assay: Lethal toxicity of Lipid-A analogs injected i.p. followed by Actinomycin D; type: in vivo; conditions: for No. Survived/No. Tested (+24 h): Actinomycin D +
Procedure: Synthetic Lipid-A analog 86 and the Natural Lipid-A (see Example 95 for more detail) were tested for their lethal toxicity. Test methods and results are summarized below (Table 4) • a) Preparation of Lipid-A analog solution: 1 mg of Lipid-A analog was dissolved in 1 ml of 20% DMSO and diluted with saline to obtain 50 μg, 10 μg and 2 μg doses in 0.5 ml. • b) Preparation of Actinomycin D: 5 mg of Actinomycin D was dissolved in 1 ml of ethanol and diluted with saline to obtain a dose at 550 μg/kg in 0.5 ml. • c) Procedure: Various doses of Lipid-A analogs or solvent as control were injected intraperitoneally (i.p.) into C57-Black mice. Twenty minutes later all groups of mice were injected with 500 μl of Actinomycin D. Mice were then observed for mortality or any other symptoms of toxicity.

| Molecule | Interferon-gamma (IFN-γ, pg/ml) (Interferon-gamma (IFN-γ); Table 2, second test group) | interferon-gamma production (Interferon-gamma (IFN-γ)) | T-cell-Proliferation (CPM) (T-cell; Table 2, second test group) | T-cell blastogenesis (T-cell) | solubility [2] | Interferon-gamma (IFN-γ, pg/ml) (Interferon-gamma (IFN-γ); Table 1, first test group) | T-cell-Proliferation (CPM) (T-cell; Table 1, first test group) | other results |
| --- | --- | --- | --- | --- | --- | --- | --- | --- |
| monophosphoryl Lipid-A | – | – | – | – | – | – | – | potency on a molar basis in eliciting toxic and pyrogenic responses, compared to diphosphoryl Lipid-A [1]: 1000 times less potent |
| CCCCCCCCCCCCCC(=O)N[C@@H](CC(=O)N[C@H]1[C@H](OC[C@H]2OC(O)[C@H](NC(=O)C[C@@H](CCCCCCCCCCC)OC(=O)CCCCCCCCCCCCC)[C@@H](OC(=O)C[C@H](O)CCCCCCCCCCC)[C@@H]2O)O[C@H](CO)[C@@H](OP(=O)(O)O)[C@@H]1OC(=O)C[C@@H](CCCCCCCCCCC)OC(=O)CCCCCCCCCCCCC)C(=O)NCCCCCCCCC (stereo partly drawn) [Compound 77, 2-Deoxy-6-O-{2-deoxy-2-[(3S)-3-tetradecanamido-4-nonylamino-4-oxo-butanamido]-4-O-phosphono-3-O-[(3R)-3-tetradecanoyloxytetradecanoyl]-β-D-glucopyranosyl}-3-O-[(3R)-3-hydroxytetradecanoyl]-2-[(3R)-3-tetradecanoyloxytetradecanamido]-α/β-D-glucopyranose] | 0 pg/mL | inactive | 2565 CPM | inactive | poor solubility | – | – | – |
| CCCCCCCCCCCCCC(=O)N[C@@H](CC(=O)N[C@H]1C(O)O[C@H](CO)[C@@H](OP(=O)(O)O)[C@@H]1OC(=O)CCCCCCCCCCCCC)C(=O)NCCCCCCCCC (stereo partly drawn) [Compound 33, 2-Deoxy-4-O-phosphono-2-[(3S)-3-tetradecanamido-4-nonylamino-4-oxo-butanamido]-3-O-tetradecanoyl-α/β-D-glucopyranose] | – | inactive | – | inactive | poor solubility | 0 pg/mL | 822 CPM | – |
| CCCCCCCCCCCCCC(=O)N[C@@H](CC(=O)N[C@H]1[C@H](OC[C@H]2OC(O)[C@H](NC(=O)C[C@@H](CCCCCCCCCCC)OC(=O)CCCCCCCCCCCCC)[C@@H](O)[C@@H]2O)O[C@H](CO)[C@@H](OP(=O)(O)O)[C@@H]1OC(=O)C[C@@H](CCCCCCCCCCC)OC(=O)CCCCCCCCCCCCC)C(=O)NCCCCCCCCC (stereo partly drawn) [Compound 58, 2-Deoxy-6-O-{2-deoxy-2-[(3S)-3-tetradecanamido-4-nonylamino-4-oxo-butanamido]-4-O-phosphono-3-O-[(3R)-3-tetradecanoyloxytetradecanoyl]-β-D-glucopyranosyl}-2-[(3R)-3-tetradecanoyloxytetradecanamido]-α/β-D-glucopyranose] | – | inactive | – | inactive | poor solubility | 0 pg/mL | 686 CPM | – |
| CCCCCCCCCCCCCC(=O)O[C@H](CCCCCCCCCCC)CC(=O)N[C@H]1[C@H](OC[C@H]2OC(O)[C@H](NC(=O)C[C@@H](CCCCCCCCCCC)OC(=O)CCCCCCCCCCCCC)[C@@H](OC(=O)C[C@H](O)CCCCCCCCCCC)[C@@H]2O)O[C@H](CO)[C@@H](OP(=O)(O)O)[C@@H]1OC(=O)C[C@@H](CCCCCCCCCCC)OC(=O)CCCCCCCCCCCCC (stereo partly drawn) [Compound 86, 2-Deoxy-6-O-{2-deoxy-4-O-phosphono-2-[(3R)-3-tetradecanoyloxytetradecanamido]-3-O-[(3R)-3-tetradecanoyloxytetradecanoyl]-β-D-glucopyranosyl}-3-O-[(3R)-3-hydroxytetradecanoyl]-2-[(3R)-3-tetradecanoyloxytetradecanamido]-α/β-D-glucopyranose] | 36461 pg/mL | high levels of interferon-gamma | 52382 CPM | significant T-cell blastogenesis | – | – | – | adjuvant activity compared to Natural Lipid-A (Lipid-A preparation of bacterial origin) ([3]; liposomal formulations with BP1-148 in mice, FIGS. 31-33): as effective; activity compared to the other synthetic Lipid-A analogs ([3]; second group (FIG. 32)): slightly more active; Interferon-gamma (IFN-γ, pg/ml) (Interferon-gamma (IFN-γ); Table 3, third test group): 17697 pg/mL; T-cell-Proliferation (CPM) (T-cell; Table 3, third test group): 15486 CPM; survival of the study (C57-Black mice; all three doses (50 μg, 10 μg, 2 μg) i.p., experiment terminated 4 days later): survived the study; No. Survived/No. Tested (+24 h) (C57-Black mice; dose 2/500 μg/μl i.p.): 3/3; No. Survived/No. Tested (+24 h) (C57-Black mice; dose 10/500 μg/μl i.p.): 3/3; No. Survived/No. Tested (+24 h) (C57-Black mice; dose 50/500 μg/μl i.p.): 3/3; toxicity compared to Natural Lipid-A product from Salmonella (C57-Black mice; in words, in vivo, C57-Black mice, Actinomycin D): much less toxic; also recorded: much lower |
